The record followed here is PMC9574863 (Journal of Medicinal Chemistry, 2022).

Values after ≈ are worked out from the molar mass of the structure shown. Read-outs that look alike come from different tables or passages of the source.

The term IC50 denotes the concentration at which inhibition is half-maximal. As usually defined, the melting point is the temperature, or range, at which the solid turns liquid. One may read the EC50 as the concentration at which the effect is half-maximal. The term logD denotes lipophilicity at a set pH, counting ionised and neutral species. In general, pKa refers to the negative logarithm of the acid dissociation constant. A low value points to a group that gives up its proton readily. By solubility is commonly meant how much of the substance goes into solution per volume. A low value points to a poorly soluble substance.

Series [1] deals with T1, recombinant hDHODH (Homo sapiens, UniProt Q02127).
T1 construct: plasmid construct pFN2A–truncated hDHODH (31-395); made in house; host or cells: E. coli BL21DE3-Gold (DE3)
T1 sequence (Q02127 31-395): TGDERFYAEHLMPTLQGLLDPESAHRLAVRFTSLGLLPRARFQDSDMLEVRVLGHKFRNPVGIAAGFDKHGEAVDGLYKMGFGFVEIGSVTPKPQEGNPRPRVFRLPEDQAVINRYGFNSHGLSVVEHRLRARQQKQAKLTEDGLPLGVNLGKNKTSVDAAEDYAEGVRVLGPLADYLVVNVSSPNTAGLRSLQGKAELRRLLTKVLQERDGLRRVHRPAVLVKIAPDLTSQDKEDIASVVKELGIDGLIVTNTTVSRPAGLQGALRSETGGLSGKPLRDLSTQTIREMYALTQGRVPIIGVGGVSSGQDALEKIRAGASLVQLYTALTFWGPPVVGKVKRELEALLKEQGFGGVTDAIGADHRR
In kind it is biochemical. The following applies: for Activity (pIC50): from hDHODH IC50, used for correlation with binding energy; for IC50: recombinant hDHODH, read-out: hDHODH IC50 ± SE. As to the method:
The vector produces hDHODH as an N-terminal GST-fusion protein. […] Triton X-100 was added to the lysate to a final concentration of 1% before centrifugation at 14,000g for 40 min at 4 °C. The clarified supernatant was incubated with DNase I for 30 min at room temperature, supplemented with 2 mM dithiothreitol (DTT), and filtered through a 0.45 μm syringe filter as previously described by Sainas et al.[38] The GST-fused enzyme was purified from the bacterial lysate using affinity chromatography on immobilized glutathione-sepharose columns (GE-HiTrap […] 1 mL). The GST tag was not cleaved for further analysis. All the reagents used in the protein expression and purification were supplied by Merck/Sigma-Aldrich if not otherwise specified.
The enzymatic inhibition assay was optimized for being performed on a 96-well plate and to achieve a higher throughput. For each well of the plate, a total volume of 200 μL was used: 5 μL of purified GST-hDHODH, 60 μL of 2,6-dichloroindophenol (DCIP) 500 μM, 20 μL of coenzyme Q10 enzyme 100 μM, 20 μL of dihydroorotate (DHO) 500 μM, and Tris–HCl pH 8 up to a final volume of 200 μL. Inhibitory activity was assessed by monitoring the reduction of DCIP, which is associated with the oxidation of dihydroorotate as catalyzed by the DHODH enzyme. […] The reaction was initiated by the addition of DHO (500 μM), and the absorbance kinetic reduction was monitored at λ = 650 nm using a multi-plate reader (Tecan, M1000Pro). In order to assess the minimum and maximum absorbance values of the enzymatic reaction, a Min control value was obtained by measuring the absorbance without DHO. Similarly, a Max value was obtained by measuring the absorbance with DHO but no inhibitor. A blank reduction calculation was also performed by measuring the absorbance values using 180 μL of Tris–HCl and 20 μL of coenzyme Q10. […] Values are means ± SE of three independent experiments.

A short description of series [2]: Solubility assay in PBS at pH 7.4. It counts as physicochemical. The following applies: PBS pH 7.4, 25 °C, LOD set at 6 µM; for Solubility in PBS: 24 h; for solubility at 24 h: aqueous buffer, thermodynamic from solid. The procedure: These suspensions were filtered through a PTFE 0.45 μm filter (VWR), and the solutions were chromatographically analyzed using a Perkin Elmer UHPLC instrument, equipped with a reverse-phase (RP) C18 Phenomenex column (2.1 × 100 mm, 1.7 μm particle size). […] The flow rate was 0.5 mL/min. The standard injection volume was either 2 or 4 μL for poorly soluble compounds. The detection system was a Perkin Elmer diode-array detector. The wavelengths that were monitored for each compound were defined according to the compound’s own absorption spectrum. Solubility, expressed as μM concentration of the saturated solution, was calculated via interpolation with external calibration curves that were obtained with solutions of each compound in acetonitrile.

For series [3], the system named is U937 cells. The series can be described thus: cells. The following applies: Homo sapiens, U-937, 72 h, read-out: apoptosis EC50 U937 (C.L. 95%).
For series [4], the system named is Jurkat T-cells. Kind of series: CFSE-based cytotoxic activity assay. It counts as cell-based, human. The following applies: for cytotoxicity (effect≥30% ± SD): 3 days, concentration inducing cytotoxicity in ≥30% of cells; for Cytoxicity (effect > 30% ±SD): non-AML cells. The procedure: Cells were centrifuged and plated (1 × 10^4 in 200 μL of medium), with increasing concentrations of the hDHODH inhibitors (1 μM to 100 μM) for 3 days. Cells were harvested, and 1 μg/mL of propidium iodide was added to assign the ratio of cell death. The percentage of specific lysis was calculated in accordance with the following equation: [dead targets in sample (%) – spontaneously dead targets (%))/(100-spontaneously dead targets (%))] × 100. Spontaneous lysis was obtained by incubating cell lines in the medium supplemented with the corresponding percentage of DMSO used for the dilution of compounds. Values represent the concentration that induces significant cytotoxic effects (≥30%).

Series [5] concerns THP1 cells. Kind of series: cells. The following applies: Homo sapiens, THP-1, read-out: differentiation EC50 THP1 (C.L. 95%).
Text: (§1) The differentiation pathway was monitored by analyzing the expression of CD11b (APC-conjugated BD Bioscience San Jose, CA, USA) or CD14 (APC-conjugated Beckam Coulter CA, USA) via flow cytometry analysis. […] Samples were acquired on an FACSVerse (BD-Biosciences San Jose CA) and dead cells were excluded from the analyses, according to the use of propidium iodide (Sigma-Aldrich, Milan, Italy). Data were processed using Kaluza software version 1.2 (Beckman Coulter Fullerton, CA).
In series [6] the test system is THP1 cells. The series can be described thus: cells. The following applies: Homo sapiens, THP-1, 72 h, read-out: apoptosis EC50 THP1 (C.L. 95%).
The nature of series [7]: log D7.4 by shake-flask method. The following applies: pH 7.4. The procedure: In the shake-flask experiments, 50 mM of PBS pH 7.4 was used as the aqueous phase.
Series [8] concerns MV4-11 cells. Kind of series: Apoptosis on MV4-11, alone or in combination with dipyridamole. The following applies: MV4-11, compound 1 μM + dipyridamole 1 μM, 3 days.
Experimental: After 3 days of culture, the apoptotic assay was performed using the Annexin V-FITC Kit (Miltenyi Biotec, Italy), according to the manufacturer’s instructions. The apoptotic cells were acquired on FacsVerse and analyzed using Kaluza software version 1.2 (Beckman Coulter Fullerton, CA).
The subject of series [9] is U937 cells. The series can be described thus: cells. The following applies: Homo sapiens, U-937, read-out: differentiation EC50 U937 (C.L. 95%).
Text: as §1
Series [10] can be described thus: physchem.

As for `Cc1cc(Oc2ccccc2)c(C)cc1NC(=O)c1c(O)nn2ccccc12` [Compound 1], in [1], the “Activity (pIC50)” value was determined as 7.30 and the IC50 turned out to be 50 ± 5 nM. In [1] (in vitro assay), the IC50 came out at 50 ± 5 nM.
Turning to `Cc1cc(NC(=O)c2c(O)nn3ccccc23)ccc1Oc1ccccc1` [Compound 2], in series [1], the “Activity (pIC50)” value was determined as 6.32.
As to `Cc1cc(Oc2ccccc2)ccc1NC(=O)c1c(O)nn2ccccc12` [Compound 3], the melting point was in the range of 238.3 to 239.9 °C.
Regarding `Cc1cc(Oc2ccccc2)c(C(C)C)cc1NC(=O)c1c(O)nn2ccccc12` [Compound 5, 2-Hydroxy-N-(5-isopropyl-2-methyl-4-phenoxyphenyl)pyrazolo[1,5-a]pyridine-3-carboxamide], the “Solubility in PBS” value in series [2] is given as “< LOD”. The EC50 in [3] was found to be 701 nM; in [5] it was 372 nM; in [6], 499 nM; in [9] it was 235 nM. Further, the “cytotoxicity (effect≥30% ± SD)” value in [4] is given as >100,000 nM. Besides, in series [4], the “Cytoxicity (effect > 30% ±SD)” value is given as above 100 µM. Moreover, the logD in series [7] came to 2.91 ± 0.07. The “apoptotic rate with dipyridamole” value in [8] was determined as 90.54 ± 2.27%. In addition, the “times less potent than brequinar on the isolated enzyme” value in series [1] was 63 times.
On to `Cc1cc(NC(=O)c2c(O)nn3ccccc23)c(OC(C)C)cc1Oc1ccccc1` [Compound 6, 2-Hydroxy-N-(2-isopropoxy-5-methyl-4-phenoxyphenyl)pyrazolo[1,5-a]pyridine-3-carboxamide], for which the melting point is 239.3 to 240.6 °C (dec.). In series [1], the “Activity (pIC50)” value stood at 5.28. The IC50 in series [1] (in vitro assay) worked out at 5200 ± 900 nM.
For the molecule `Cc1cc(NC(=O)c2c(O)nn3ccccc23)c(OC2CCC2)cc1Oc1ccccc1` [Compound 7, N-(2-Cyclobutoxy-5-methyl-4-phenoxyphenyl)-2-hydroxypyrazolo[1,5-a]pyridine-3-carboxamide], the melting point is 262.5 to 263.3 °C (dec.). In addition, in [1] (in vitro assay), the IC50 is above 10000 nM.
Turning to `CCC(C)Oc1cc(Oc2ccccc2)c(C)cc1NC(=O)c1c(O)nn2ccccc12` (stereo not shown) [Compound 8, N-(2-(Sec-butoxy)-5-methyl-4-phenoxyphenyl)-2-hydroxypyrazolo[1,5-a]pyridine-3-carboxamide], in series [1], the “Activity (pIC50)” value is given as 5.41. In addition, the IC50 in series [1] (in vitro assay) amounted to 3900 ± 800 nM.
Take `CCC(CC)Oc1cc(Oc2ccccc2)c(C)cc1NC(=O)c1c(O)nn2ccccc12` [Compound 9, 2-Hydroxy-N-(5-methyl-2-(pentan-3-yloxy)-4-phenoxyphenyl)pyrazolo[1,5-a]pyridine-3-carboxamide]: in series [1], the “Activity (pIC50)” value is 5.66. Moreover, the IC50 in series [1] (in vitro assay) was determined as 2210 nM.
On to `CCCC(C)Oc1cc(Oc2ccccc2)c(C)cc1NC(=O)c1c(O)nn2ccccc12` (stereo not shown) [Compound 10, 2-Hydroxy-N-(5-methyl-2-(pentan-2-yloxy)-4-phenoxyphenyl)pyrazolo[1,5-a]pyridine-3-carboxamide], for which the melting point is 250.5 to 251.3 °C (dec.). Also, in series [1], the “Activity (pIC50)” value stood at 5.15. The IC50 in series [1] (in vitro assay) stood at 7000 ± 1000 nM.
On to `O=C(Nc1ccc2[nH]ccc2c1)c1c(O)nn2ccccc12` [Compound 11, 2-Hydroxy-N-(1H-indol-5-yl)pyrazolo[1,5-a]pyridine-3-carboxamide], for which the pKa came to 4.81 ± 0.06 in [10] (by spectroscopic) and 4.85 ± 0.03 in [10] (potentiometric titration). The log distribution coefficient (logD) in [7] came out at 0.45 ± 0.02. In series [1] (in vitro assay), the IC50 is above 10000 nM.
Turning to `O=C(Nc1ccc2c(ccn2-c2ccccc2)c1)c1c(O)nn2ccccc12` [Compound 12, 2-Hydroxy-N-(1-phenyl-1H-indol-5-yl)pyrazolo[1,5-a]pyridine-3-carboxamide], the melting point was 252.4 to 253.8 °C (dec.). Besides, the logD in series [7] came to 2.89 ± 0.05. In [1], the “Activity (pIC50)” value stood at 5.55. Also, the IC50 in series [1] (in vitro assay) was 2800 ± 400 nM.
On to `O=C(Nc1ccc2c(c1)ncn2-c1ccccc1)c1c(O)nn2ccccc12` [Compound 13, 2-Hydroxy-N-(1-phenyl-1H-benzo[d]imidazole-5-yl)pyrazolo[1,5-a]pyridine-3-Carboxamide], for which the melting point was 258.7 to 260.1 °C (dec.). Besides, in series [7], the logD stood at 2.55 ± 0.04. In addition, the IC50 in series [1] (in vitro assay) is above 10000 nM.
As to `O=C(Nc1ccc2c(c1)nnn2-c1ccccc1)c1c(O)nn2ccccc12` [Compound 14, 2-Hydroxy-N-(1-phenyl-1H-benzo[d][1,2,3]triazol-5-yl)pyrazolo[1,5-a]pyridine-3-carboxamide], the melting point was 269.9 to 271.9 °C (dec.). The logD in series [7] was 1.59 ± 0.03. In [1], the “Activity (pIC50)” value came to 5.14. Further, in series [1] (in vitro assay), the IC50 was found to be 7200 ± 1600 nM.
For `O=C(Nc1ccc(Oc2ccccc2)cn1)c1c(O)nn2ccccc12` [Compound 15, 2-Hydroxy-N-(5-phenoxypyridin-2-yl)pyrazolo[1,5-a]pyridine-3-carboxamide], the melting point was 161.1 to 161.9 °C (dec.). Further, the solubility at 24 h in [2] turned out to be 1850 µM (≈ 641 µg/mL). Further, the IC50 in series [1] (in vitro assay) is above 10000 nM.
Regarding `O=C(Nc1ccc(Oc2cccc(C(F)(F)F)c2)cn1)c1c(O)nn2ccccc12` [Compound 16, 2-Hydroxy-N-5-[3-(trifluoromethyl)phenoxy]pyridin-2-ylpyrazolo[1,5-a]pyridine-3-carboxamide], the melting point was 241.2 to 242 °C (dec.). The IC50 in series [1] (in vitro assay) is above 10000 nM.
For `Cc1cc(Sc2ccncc2)c(C)cc1NC(=O)c1c(O)nn2ccccc12` [Compound 17, 2-Hydroxy-N-(2,5-dimethyl-4-(pyridin-4-ylthio)phenyl)pyrazolo[1,5-a]pyridine-3-carboxamide], the melting point is 250.5 to 251.9 °C (dec.). This molecule returned a logD in series [7] of 1.76 ± 0.07. Further, in series [1], the “Activity (pIC50)” value came out at 5.66. Besides, the 50% inhibitory concentration (IC50) in series [1] (in vitro assay) was found to be 2200 ± 400 nM.
On to `Cc1cc(NC(=O)c2c(O)nn3ccccc23)c(C(C)C)cc1Oc1ccncc1` [Compound 18, 2-Hydroxy-N-(2-isopropyl-5-methyl-4-(pyridin-4-yloxy)phenyl)pyrazolo[1,5-a]pyridine-3-carboxamide], for which the solubility at 24 h in series [2] came out at 111 µM (≈ 44.7 µg/mL). In addition, the EC50 in [3] stood at 9820 nM; in series [5], 1970 nM; in series [6], 2650 nM; in series [9], 2280 nM. Also, the “cytotoxicity (effect≥30% ± SD)” value in [4] came out at 75830 ± 10340 nM. In addition, the “Cytoxicity (effect > 30% ±SD)” value in [4] is on record as 75,8 ± 10,3 µM. In series [7], this molecule returned a logD of 2.51 ± 0.07.
As to `Cc1cc(NC(=O)c2c(O)nn3ccccc23)c(C(C)C)cc1Oc1ccc(C(F)(F)F)cc1` [Compound 19, 2-Hydroxy-N-(2-isopropyl-5-methyl-4-(4-(trifluoromethyl)phenoxy)phenyl)pyrazolo[1,5-a]pyridine-3-carboxamide], the “Solubility in PBS” value in [2] is “< LOD”. Further, the EC50 came to 448 nM in series [3], 133 nM in series [5], 230 nM in series [6] and 109 nM in series [9]. For the same molecule, the “cytotoxicity (effect≥30% ± SD)” value in series [4] was determined as 71320 ± 5250 nM. Besides, in series [4], the “Cytoxicity (effect > 30% ±SD)” value is given as 71,3 ± 5,3 µM. In addition, in [1], the “times less potent than brequinar on the isolated enzyme” value was 10 times.
